Results on 2 compounds are retold here after publication PMC4723341, “Ribonuclease H/DNA Polymerase HIV-1 Reverse Transcriptase Dual Inhibitor: Mechanistic Studies on the Allosteric Mode of Action of Isatin-Based Compound RMNC6” (PLoS ONE, 2016).

For test [1], the system named is HIV-2 RT. Also noted: method as in PMID 15741178. The following applies: HIV-2 RT versus HIV-1 RT; cited from earlier work.
Test [2] relates to HIV-1 RT-associated RNase H activity, V106A RT. Briefly: RNase H activity assay, V106A RT. It counts as biochemical, HIV-1 group M subtype B. The following applies: V106A RT. The protocol: HIV RT-associated RNase H activity was measured as described in 100 μL reaction volume containing 50 mM Tris-HCl buffer pH 7.8, 6 mM MgCl2, 1 mM dithiothreitol (DTT), 80 mM KCl, 0.25 μM hybrid RNA/DNA 5'-GAUCUGAGCCUGGGAGCU-Fluorescin-3' (HPLC, dry, QC: Mass Check) (available from Metabion) 5'-Dabcyl-AGCTCCCAGGCTCAGATC-3'(HPLC, dry, QC: Mass Check), increasing concentrations of inhibitors, whose dilution were made in water, and different amount of enzymes according to a linear range of dose-response curve: 20 ng of WT RT; 60 ng K103N RT; 37.5 ng V106A RT; 75 ng V108A RT; 5 ng Y181C RT; 50 ng Y188A RT; 30 ng Y188L RT; 100 ng E224A RT; 37.5 ng P225A RT; 20 ng P226A RT; 18 ng F227A RT; 30 ng L228A RT; 30 ng W229A RT; 10 ng M230A RT; 30 ng G231A RT; 62.5 ng N474A RT; 1 μg Y501A RT; 100 ng A502F RT; 37.5 ng A508V RT; 38 ng HIV-1 group O RT. The reaction mixture was incubated for 1 h at 37°C, stopped by addition of EDTA and products were measured with a multilabel counter plate reader Victor 3 (Perkin Elmer model 1420–051) equipped with filters for 490/528 nm (excitation/emission wavelength)

For test [3], the target named is T1, HIV-1 RT-associated RDDP activity, wt RT (Human immunodeficiency virus type 1 group M subtype B, UniProt P04585).
T1 construct: The 1:1 ration between the p66/p51 subunits was also verified; made in house; host or cells: E. coli M15
Briefly: biochemical. Details: species or system HIV-1 group M subtype B.

Test [4] concerns the target T2, HIV-1 RT-associated RDDP activity, F227A RT (Human immunodeficiency virus type 1 group M subtype B, UniProt P04585, F814A).
T2 construct: The 1:1 ration between the p66/p51 subunits was also verified; made in house; host or cells: E. coli M15
Briefly: biochemical. Details: species or system HIV-1 group M subtype B.

In test [5] the test system is HIV-1 RT-associated RDDP activity, F227A RT. Briefly: biochemical. To be noted: F227A RT. Also noted: species or system HIV-1 group M subtype B.
Test [6] addresses T3, HIV-1 RT-associated RDDP activity, Y188L RT (Human immunodeficiency virus type 1 group M subtype B, UniProt P04585, Y775L).
T3 construct: The 1:1 ration between the p66/p51 subunits was also verified; made in house; host or cells: E. coli M15
As to the kind of experiment: RDDP activity assay, Y188L RT. It counts as biochemical, HIV-1 group M subtype B.

The target of test [7] is T4, HIV-1 RT-associated RDDP activity, Y181C RT (Human immunodeficiency virus type 1 group M subtype B, UniProt P04585, Y768C).
T4 construct: The 1:1 ration between the p66/p51 subunits was also verified; made in house; host or cells: E. coli M15
As to the kind of experiment: RDDP activity assay, Y181C RT. It counts as biochemical, HIV-1 group M subtype B.

Test [8] addresses T5, HIV-1 RT-associated RDDP activity, L228A RT (Human immunodeficiency virus type 1 group M subtype B, UniProt P04585, L815A).
T5 construct: The 1:1 ration between the p66/p51 subunits was also verified; made in house; host or cells: E. coli M15
As to the kind of experiment: biochemical. Also noted: species or system HIV-1 group M subtype B.

Test [9] relates to HIV-1 RT-associated RDDP activity, L228A RT. As to the kind of experiment: biochemical. Details: species or system HIV-1 group M subtype B. The following applies: L228A RT.
Test [10] has as its system HIV-1 RT-associated RDDP activity, M230A RT. Briefly: biochemical. Also noted: species or system HIV-1 group M subtype B. To be noted: M230A RT.
Test [11] concerns the target T6, HIV-1 RT-associated RDDP activity, M230A RT (Human immunodeficiency virus type 1 group M subtype B, UniProt P04585, M817A).
T6 construct: The 1:1 ration between the p66/p51 subunits was also verified; made in house; host or cells: E. coli M15
Briefly: biochemical. Also noted: species or system HIV-1 group M subtype B.

The target in test [12] is T7, HIV-1 RT-associated RDDP activity, W229A RT (Human immunodeficiency virus type 1 group M subtype B, UniProt P04585, W816A).
T7 construct: The 1:1 ration between the p66/p51 subunits was also verified; made in house; host or cells: E. coli M15
Briefly: biochemical. Details: species or system HIV-1 group M subtype B.

In test [13] the target is T8, HIV-1 RT RNA-dependent DNA polymerase activity (Human immunodeficiency virus type 1 group M subtype B, UniProt P04585).
T8 construct: The 1:1 ration between the p66/p51 subunits was also verified; made in house; host or cells: E. coli M15
Briefly: Yonetani-Theorell analysis of RMNC6 and EFV on RDDP function. It counts as biochemical. As to the method: RNA-dependent DNA polymerase (RDDP) activity was measured as described in 25 μL volume containing 60 mM Tris-HCl buffer pH 8.1, 8 mM MgCl2, 60 mM KCl, 13 mM DTT, 2.5 μM poly(A)-oligo(dT), 100 μM dTTP, increasing concentrations of inhibitors, whose dilution were made in water, and different amounts of enzymes according to a linear range of dose-response curve: 6 ng wt RT; 30 ng K103N RT; 12 ng V106ART; 19 ng V108A RT; 1.51.5 ng Y181C RT; 45 ng Y188A RT; 15 ng Y188L RT; 30 ng E224A RT; 15 ng P225A RT; 18 ng P226A RT; 23 ng F227A RT; 15 ng L228A RT; 30 ng W229A RT; 30 ng M230A RT; 15 ng G231A RT; 15 ng N474A RT; 15 ng Y501A RT; 15 ng A502F RT; 19 ng A508V RT; 38 ng HIV-1 group O RT. After enzyme addition, the reaction mixture was incubated for 30 min at 37°C and the stopped by addition of EDTA. Reaction products were detected by picogreen addition and measured with a multilabel counter plate reader Victor 3 (Perkin Elmer model 1420–051) equipped with filters for 502/523 nm (excitation/emission wavelength). The Yonetani-Theorell analysis was performed as described previously.

Test [14] deals with T9, HIV-1 RT-associated RDDP activity, E224A RT (Human immunodeficiency virus type 1 group M subtype B, UniProt P04585, E811A).
T9 construct: The 1:1 ration between the p66/p51 subunits was also verified; made in house; host or cells: E. coli M15
Briefly: biochemical. Details: species or system HIV-1 group M subtype B.

In test [15] the target is T10, HIV-1 RT-associated RDDP activity, Y501A RT (Human immunodeficiency virus type 1 group M subtype B, UniProt P04585, Y1088A).
T10 construct: The 1:1 ration between the p66/p51 subunits was also verified; made in house; host or cells: E. coli M15
As to the kind of experiment: biochemical. Details: species or system HIV-1 group M subtype B.

Consider `CC(C)c1ccc(O)c(=O)c(O)c1` [BTP, β-thujaplicinol, reference compound], for which the “Times less susceptible than the HIV-1 enzyme” value in test [1] is given as “about 3.7”. Besides, the “Fold of increase of RNase H IC50 with respect to wt RT” value in test [2] is 0.8.
As to `N#Cc1ccc(-c2csc(NN=C3C(=O)Nc4ccccc43)n2)cc1` [RMNC6, (Z)-4-(2-(2-(2-oxoindolin-3-ylidene)hydrazinyl)thiazol-4-yl)benzonitrile], the IC50 was 9.8 ± 1.4 µM in test [3]; 15.2 ± 0.9 µM in test [4]; 16.5 ± 3.7 µM in test [6]; 5.4 ± 0.3 µM in test [7]; 13.1 ± 1.9 µM in [8]; 15 ± 3.5 µM in [11]. Besides, the results for the half-inhibitory concentration (IC50) in test [12], in [14] and in test [15] were 15.4 ± 2.8 µM, 13.8 ± 4.2 µM and 6.6 ± 0.1 µM, respectively. In addition, the “Fold of increase of RDDP IC50 with respect to wt RT” value in test [5] was determined as 1.5; in test [9] it was 1.3; in test [10], 1.5; in test [12] (W229A RT), 1.6; in test [14] (E224A RT), 1.4; in [15] (Y501A RT), 0.7. Besides, the “Mutual exclusivity of inhibition (Yonetani-Theorell, words)” value in test [13] (RMNC6 combined with EFV (4, 8, 16 nM) on RDDP function) was “not mutually exclusive”. The “Interaction constant α (Yonetani-Theorell)” value in test [13] (combined effects of RMNC6 and EFV on RDDP function) is on record as 1.2.

A word on the IC50: it is the concentration that gives 50% inhibition. A higher IC50 goes with weaker potency.
